Molecular target: human PCSK9 (Homo sapiens, UniProt Q8NBP7)
Experiment: PCSK9 ligand binding assay (TR-FRET): interference with binding of human PCSK9 to human LDLR
Settings: for IC50: Human PCSK9 Alexa Fluor 647 / Human LDLR extracellular domain-Europium Kryptate; for Max % inhibition: efficacy (Amax), 100% = 1 uM unlabeled human PCSK9, 0% = DMSO
In short: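 Read-out was TR-FRET ratio (665 nm over 615 nm, 330 nm excitation) between Alexa Fluor 647-human PCSK9 (16 nM added) and Europium Kryptate-human LDLR ectodomain (4 nM added). Compound and PCSK9 were mixed 30 min before LDLR, then incubated 2 h. Inhibition was normalised to DMSO and unlabelled-PCSK9 controls, giving IC50 and Amax.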

Sequence of human PCSK9 (Q8NBP7 153-692): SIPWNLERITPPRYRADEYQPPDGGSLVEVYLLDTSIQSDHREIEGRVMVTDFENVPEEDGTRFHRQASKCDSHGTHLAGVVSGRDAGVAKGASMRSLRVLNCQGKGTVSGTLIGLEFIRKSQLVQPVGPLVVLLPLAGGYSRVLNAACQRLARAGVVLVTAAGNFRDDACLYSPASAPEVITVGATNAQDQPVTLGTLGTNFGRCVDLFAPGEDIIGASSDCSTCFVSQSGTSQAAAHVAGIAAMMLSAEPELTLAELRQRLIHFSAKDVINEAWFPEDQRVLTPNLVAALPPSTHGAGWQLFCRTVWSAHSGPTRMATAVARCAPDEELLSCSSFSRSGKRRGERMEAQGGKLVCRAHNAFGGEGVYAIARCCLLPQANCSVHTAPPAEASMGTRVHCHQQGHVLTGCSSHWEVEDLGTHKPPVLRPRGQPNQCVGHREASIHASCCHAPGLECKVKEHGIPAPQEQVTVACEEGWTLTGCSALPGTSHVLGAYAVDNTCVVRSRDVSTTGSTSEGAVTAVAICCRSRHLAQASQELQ
Sequence of human PCSK9 (Q8NBP7 31-152 partner limits assumed): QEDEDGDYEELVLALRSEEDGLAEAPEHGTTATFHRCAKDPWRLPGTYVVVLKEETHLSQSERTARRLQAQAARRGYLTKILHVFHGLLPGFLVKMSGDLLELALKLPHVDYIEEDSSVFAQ

IC50 [nM] | Max % inhibition [%] | SMILES
1.28 | 113.6 | C[C@H]1C(=O)N[C@@H](CO)C(=O)N[C@@]2(Cc3ccc(Cl)cc3)CCCN(C2)C(=O)[C@H](CC(F)(F)F)CC(=O)N1Cc1ccc(Cl)cc1Oc1ccc(-c2cnc(CN(C)C(C)(C)C)n2C)cc1 [Compound 143, (3S, 7S, 10S, 13R)-6-(2-(4-(2-((tert-butyl(methyl)amino)methyl)-1-methyl-1H-imidazol-5-yl)phenoxy)-4-chlorobenzyl)-13-(4-chlorobenzyl)-10-(hydroxymethyl)-7-methyl-3-(2,2,2-trifluoroethyl)-1,6,9,12-tetraazabicyclo[11.3.1]heptadecane-2,5,8,11-tetraone]
490 | 93.6 | COC[C@@H]1NC(=O)[C@H](C)N(Cc2ccc(Cl)cc2Oc2ccc(-c3cnc(CN4CCCC4)n3C)cc2)C(=O)C[C@@H](N(C)C)C(=O)N(C)C[C@@H](Cc2ccc(Cl)cc2)N(C)C1=O.Cl [Compound 134, (2S, 5S, 8R, 12R)-1-(4-chloro-2-(4-(1-methyl-2-(pyrrolidin-1-ylmethyl)-1H-imidazol-5-yl)phenoxy)benzyl)-8-(4-chlorobenzyl)-12-(dimethylamino)-5-(methoxymethyl)-2,7,10-trimethyl-1,4,7,10-tetraazacyclotetradecane-3,6,11,14-tetraone]
2.41 | 108.6 | C[C@H]1C(=O)N[C@@H](CO)C(=O)N[C@@]2(Cc3ccc(Cl)cc3)CCCN(C2)C(=O)[C@H](Cc2ccccc2)CC(=O)N1Cc1c(Cl)cc(Cl)cc1Oc1ccc(-c2cnc(CN(C)C)n2C)cc1 [Compound 98, (3R, 7S, 10S, 13R)-3-benzyl-13-(4-chlorobenzyl)-6-(2,4-dichloro-6-(4-(2-((dimethylamino)methyl)-1-methyl-1H-imidazol-5-yl)phenoxy)benzyl)-10-(hydroxymethyl)-7-methyl-1,6,9,12-tetraazabicyclo+11.3.111-tetraone]
0.631 | 102.2 | C[C@H]1C(=O)N[C@@H](CO)C(=O)N[C@@]2(Cc3ccc(Cl)cc3)CCCN(C2)C(=O)[C@H]([C@@H]2CCc3ccccc32)CC(=O)N1Cc1c(F)cc(Cl)cc1Oc1ccc(-c2cnc(CN(C)C)n2C)cc1 [Compound 49, (3S, 7S, 10S, 13R)-6-(4-chloro-2-(4-(2-((dimethylamino)methyl)-1-methyl-1H-imidazol-5-yl)phenoxy)-6-fluorobenzyl)-13-(4-chlorobenzyl)-3-((S)-2,3-dihydro-1H-inden-1-yl)-10-(hydroxymethyl)-7-methyl-1,6,9,12-tetraazabicyclo[11.3.1]heptadecane-2,5,8,11-tetraone]
0.47 | 107.0 | COC[C@@H]1NC(=O)[C@H](C)N(Cc2ccc(Cl)cc2Oc2ccc(-c3cnc(CN(C)C)n3C)cc2)C(=O)C[C@@H](Cc2ccccn2)C(=O)N2CCC[C@@](Cc3ccc(Cl)cc3)(C2)NC1=O [Compound 21, (3R,7S,10S,13R)-6-(4-Chloro-2-(4-(2-((dimethylamino)methyl)-1-methyl-1H-imidazol-5-yl)phenoxy)benzyl)-13-(4-chlorobenzyl)-10-(methoxymethyl)-7-methyl-3-(pyridin-2-ylmethyl)-1,6,9,12-tetraazabicyclo[11.3.1]heptadecane-2,5,8,11-tetraone]
1.78 | 112.3 | COC[C@@H]1NC(=O)[C@H](C)N(Cc2c(F)cc(Cl)cc2Oc2ccc(-c3cnc(CN(C)C(C)(C)C)n3C)cc2)C(=O)C[C@@H](CC(F)(F)F)C(=O)N2CCC[C@@](Cc3ccc(Cl)cc3)(C2)N(C)C1=O [Compound 141, (3S, 7S, 10S, 13R)-6-(2-(4-(2-((tert-butyl(methyl)amino)methyl)-1-methyl-1H-imidazol-5-yl)phenoxy)-4-chloro-6-fluorobenzyl)-13-(4-chlorobenzyl)-10-(methoxymethyl)-7,12-dimethyl-3-(2,2,2-trifluoroethyl)-1,6,9,12-tetraazabicyclo[11.3.1]heptadecane-2,5,8,11-tetraone]
0.82 | 97.0 | C[C@H]1C(=O)N[C@@H](CO)C(=O)N[C@@]2(Cc3ccc(Cl)cc3)CCCN(C2)C(=O)[C@H](Cc2cccnc2)CC(=O)N1Cc1ccc(Cl)cc1Oc1ccc(-c2cnc(CN3CCOCC3)n2C)cc1.Cl [Compound 47, (3R, 7S, 10S, 13R)-6-(4-chloro-2-(4-(1-methyl-2-(morpholinomethyl)-1H-imidazol-5-yl)phenoxy)benzyl)-13-(4-chlorobenzyl)-10-(hydroxymethyl)-7-methyl-3-(pyridin-3-ylmethyl)-1,6,9,12-tetraazabicyclo[11.3.1]heptadecane-2,5,8,11-tetraone]
0.463 | 109.3 | COC[C@@H]1NC(=O)[C@H](C)N(Cc2ccc(Cl)cc2Oc2ccc(-c3cnc(CN(C)C)n3C)cc2)C(=O)C[C@@H](Cc2cccnc2)C(=O)N2CCC[C@@](Cc3ccc(Cl)cc3)(C2)NC1=O.Cl [Compound 23, (3R, 7S, 10S, 13R)-6-(4-chloro-2-(4-(2-((dimethylamino)methyl)-1-methyl-1H-imidazol-5-yl)phenoxy)benzyl)-13-(4-chlorobenzyl)-10-(methoxymethyl)-7-methyl-3-(pyridin-3-ylmethyl)-1,6,9,12-tetraazabicyclo[11.3.1]heptadecane-2,5,8,11-tetraone]

The remaining lines, values behind:

SMILES | IC50 [nM] | Max % inhibition [%]
COC[C@@H]1NC(=O)[C@H](C)N(Cc2ccc(Cl)cc2Oc2ccc(-c3cnc(CN4CCCC4)n3C)cc2)C(=O)C[C@@H]([C@H]2CCc3ccccc32)C(=O)N(C)C[C@@H](Cc2ccc(Cl)cc2)N(C)C1=O.Cl [Compound 101, (2S, 5S, 8R, 12S)-1-(4-chloro-2-(4-(1-methyl-2-(pyrrolidin-1-ylmethyl)-1H-imidazol-5-yl)phenoxy)benzyl)-8-(4-chlorobenzyl)-12-((R)-2,3-dihydro-1H-inden-1-yl)-5-(methoxymethyl)-2,7,10-trimethyl-1,4,7,10-tetraazacyclotetradecane-3,6,11,14-tetraone] | 1.94 | 98.3
C[C@H](NCc1ccc(Cl)cc1Oc1ccc(-c2cnc(CN(C)C)n2C)cc1)C(=O)N[C@H]1COC(=O)C[C@@H](Cc2ccccc2)C(=O)N(C)[C@@]2(Cc3ccc(Cl)cc3)CCCN(C2)C1=O [Compound 130, (2S)-N-((3S, 8R, 11R)-8-benzyl-11-(4-chlorobenzyl)-10-methyl-2,6,9-trioxo-5-oxa-1,10-diazabicyclo[9.3.1]pentadecan-3-yl)-2-((4-chloro-2-(4-(2-((dimethylamino)methyl)-1-methyl-1H-imidazol-5-yl)phenoxy)benzyl)amino)propanamide] | 879 | 99.3
C[C@H]1C[C@H]([C@@H]2CC(=O)N(Cc3ccc(Cl)cc3Oc3ccc(-c4cnc(CN5CCCC5)n4C)cc3)[C@@H](C)C(=O)N[C@@H](CO)C(=O)N(C)[C@H](Cc3ccc(Cl)cc3)CN(C)C2=O)c2ccccc21.Cl [Compound 93, (2S, 5S, 8R, 12S)-1-(4-chloro-2-(4-(1-methyl-2-(pyrrolidin-1-ylmethyl)-1H-imidazol-5-yl)phenoxy)benzyl)-8-(4-chlorobenzyl)-5-(hydroxymethyl)-2,7,10-trimethyl-12-((1R, 3S)-3-methyl-2,3-dihydro-1H-inden-1-yl)-1,4,7,10-tetraazacyclotetradecane-3,6,11,14-tetraone] | 1.4 | 103.0
COC[C@@H]1NC(=O)[C@@H](C)N(Cc2c(F)cc(Cl)cc2Oc2ccc(-c3cnc(CN(C)C)n3C)nc2)C(=O)C[C@@H](CC(F)(F)F)C(=O)N2CCC[C@@](Cc3ccc(Cl)cc3)(C2)N(C)C1=O [Compound 176, (3S, 7R, 10S, 13R)-6-(4-chloro-2-((6-(2-((dimethylamino)methyl)-1-methyl-1H-imidazol-5-yl)pyridin-3-yl)oxy)-6-fluorobenzyl)-13-(4-chlorobenzyl)-10-(methoxymethyl)-7,12-dimethyl-3-(2,2,2-trifluoroethyl)-1,6,9,12-tetraazabicyclo[11.3.1]heptadecane-2,5,8,11-tetraone] | 76.3 | 86.3
CCc1ccc(CN2C(=O)C[C@@H]([C@@H]3CCc4ccccc43)C(=O)N(C)C[C@@H](Cc3ccc(Cl)cc3)N(C)C(=O)[C@@H](CO)NC(=O)[C@@H]2C)c(Oc2ccc(-c3cnc(CN(C)C)n3C)cc2)c1 [Compound 121] | 91.5 | 92.9
COC[C@@H]1NC(=O)[C@H](C)N(Cc2ccc(Cl)cc2Oc2ccc(-c3cnc(CN4CCCC4)n3C)cc2)C(=O)C[C@@H]([C@H]2CCc3ccccc32)C(=O)N(CC2(C)CC2)C[C@@H](Cc2ccc(Cl)cc2)N(C)C1=O.Cl [Compound 115, (2S, 5S, 8R, 12S)-1-(4-chloro-2-(4-(1-methyl-2-(pyrrolidin-1-ylmethyl)-1H-imidazol-5-yl)phenoxy)benzyl)-8-(4-chlorobenzyl)-12-((R)-2,3-dihydro-1H-inden-1-yI)-5-(methoxymethyl)-2,7-dimethyl-10-((1-methylcyclopropyl)methyl)-1,4,7,10-tetraazacyclotetradecane-3,6,11,14-tetraone] | 25 | 99.0
COC[C@@H]1NC(=O)[C@H](CCCN2CCOCC2)N(Cc2ccc(Cl)cc2Oc2ccc(-c3cnc(CN(C)C)n3C)cc2)C(=O)C[C@@H]([C@H]2CCc3ccccc32)C(=O)N(C)C[C@@H](Cc2ccc(Cl)cc2)N(C)C1=O.Cl [Compound 127, (2S, 5S, 8R, 12S)-1-(4-chloro-2-(4-(2-((dimethylamino)methyl)-1-methyl-1H-imidazol-5-yl)phenoxy)benzyl)-8-(4-chlorobenzyl)-12-((R)-2,3-dihydro-1H-inden-1-yl)-5-(methoxymethyl)-7,10-dimethyl-2-(3-morpholinopropyl)-1,4,7,10-tetraazacyclotetradecane-3,6,11,14-tetraone] | 138 | 94.3
